From the NIST ThermoML archive (doi:10.1016/j.jct.2019.05.005)
± gives the expanded uncertainty stated by the source.

Details: Liquid; Ebulliometric method (Recirculating still)
`CCC(C)O` (centres undefined) [butan-2-ol] showed a Normal boiling temperature of 99.48 ± 1 °C.
Work on `CCC(C)OC(C)=O` (centres undefined) [1-methylpropyl ethanoate] yielded a Normal boiling temperature of 112.18 ± 1 °C.
Work on `C[S+](C)[O-]` [dimethyl sulfoxide] yielded a Normal boiling temperature of 190.02 ± 1 °C.
`CC(=O)N(C)C` [N,N-dimethylethanamide] gave a Normal boiling temperature of 165.80 ± 1 °C.
